# Data: publication PMC11672637, “7-O-Carboxylic Acid-Substituted 3-O-Alkyl Difluoroquercetin; An Aztreonam-Potentiating Agent Against Carbapenemase-Producing Pseudomonas aeruginosa Through Simultaneous Inhibition of Metallo-β-Lactamase and Efflux Pump” (Antibiotics, 2024)
# Read-outs that look alike come from different tables or passages of the source.
# Columns and labels:
# PA-021, blaIMP = assay: MIC / checkerboard with ATM; type: cell-based, P. aeruginosa; details: Pseudomonas aeruginosa, read-out: MIC of ATM with 5, PA-021
# PA-040, blaNDM = assay: MIC / checkerboard with ATM; type: cell-based, P. aeruginosa; details: for MIC: Pseudomonas aeruginosa, read-out: MIC of ATM with 5, PA-040
# PA-029, blaIMP = assay: MIC / checkerboard with ATM; type: cell-based, P. aeruginosa; details: for MIC: Pseudomonas aeruginosa, read-out: MIC of ATM with 5, PA-029
# PA-031, blaNDM = assay: MIC / checkerboard with ATM; type: cell-based, P. aeruginosa; details: for MIC: Pseudomonas aeruginosa, read-out: MIC of ATM with 5, PA-031
# PA-033, blaNDM = assay: MIC / checkerboard with ATM; type: cell-based, P. aeruginosa; details: for MIC: Pseudomonas aeruginosa, read-out: MIC of ATM with 5, PA-033
# In vivo toxicity = details: 6-week-old C57BL/6J female mouse
# PA-032, blaIMP = assay: MIC / checkerboard with ATM; type: cell-based, P. aeruginosa; details: for MIC: Pseudomonas aeruginosa, read-out: MIC of ATM with 5, PA-032
smiles,measurement,setting,value
"CC(C)(C)CCOc1c(-c2ccc(F)c(F)c2)oc2cc(OCC(=O)O)cc(O)c2c1=O [Compound 5, 2-((2-(3,4-Difluorophenyl)-3-(3,3-dimethylbutoxy)-5-hydroxy-4-oxo-4H-chromen-7-yl)oxy)acetic Acid]",MIC,"PA-021, blaIMP; 5 at 1 mg/L",1 µg/mL
same,MIC,"PA-021, blaIMP; 5 at 2 mg/L",0.5 µg/mL
same,MIC,"PA-021, blaIMP; 5 at 4 mg/L",0.5 µg/mL
same,MIC,"PA-021, blaIMP; 5 at 8 mg/L",0.5 µg/mL
same,MIC,"PA-021, blaIMP; 5 at 16 mg/L",0.5 µg/mL
same,MIC,"PA-021, blaIMP; 5 at 32 mg/L",0.5 µg/mL
same,MIC,"PA-021, blaIMP; 5 at 64 mg/L",0.5 µg/mL
same,Activity (FICI class),"PA-040, blaNDM; PA-040","S (S (Synergy, FICI ≤ 0.5))"
same,Concentrations of ATM and 5 at lowest FICI (ATM/5),"PA-040, blaNDM; PA-040",1/32
same,Lowest FICI (ATM/5),"PA-040, blaNDM; PA-040",0.31
same,Susceptibility to ATM,"PA-040, blaNDM; PA-040, ATM/5","S (S (sensitive, MIC ≤ 8 mg/L))"
same,FD (fold decrease in MIC of ATM with 5),"PA-040, blaNDM; PA-040, lowest-FICI combination",4
same,MIC,"PA-040, blaNDM; 5 at 1 mg/L",4 µg/mL
same,MIC,"PA-040, blaNDM; 5 at 2 mg/L",4 µg/mL
same,MIC,"PA-040, blaNDM; 5 at 4 mg/L",2 µg/mL
same,MIC,"PA-040, blaNDM; 5 at 8 mg/L",2 µg/mL
same,MIC,"PA-040, blaNDM; 5 at 16 mg/L",2 µg/mL
same,MIC,"PA-040, blaNDM; 5 at 32 mg/L",1 µg/mL
same,MIC,"PA-040, blaNDM; 5 at 64 mg/L",1 µg/mL
same,Activity (FICI class),"PA-029, blaIMP; PA-029","S (S (Synergy, FICI ≤ 0.5))"
same,Concentrations of ATM and 5 at lowest FICI (ATM/5),"PA-029, blaIMP; PA-029",8/16
same,Lowest FICI (ATM/5),"PA-029, blaIMP; PA-029",0.28
same,Minimum concentration of 5 to make sensitive to ATM,"PA-029, blaIMP; PA-029",16 mg/L
same,Susceptibility to ATM,"PA-029, blaIMP; PA-029, ATM/5","S (S (sensitive, MIC ≤ 8 mg/L))"
same,FD (fold decrease in MIC of ATM with 5),"PA-029, blaIMP; PA-029, lowest-FICI combination",4
same,MIC,"PA-029, blaIMP; 5 at 1 mg/L",32 µg/mL
same,MIC,"PA-029, blaIMP; 5 at 2 mg/L",32 µg/mL
same,MIC,"PA-029, blaIMP; 5 at 4 mg/L",16 µg/mL
same,MIC,"PA-029, blaIMP; 5 at 8 mg/L",16 µg/mL
same,MIC,"PA-029, blaIMP; 5 at 16 mg/L",8 µg/mL
same,MIC,"PA-029, blaIMP; 5 at 32 mg/L",8 µg/mL
same,MIC,"PA-029, blaIMP; 5 at 64 mg/L",8 µg/mL
same,Activity (FICI class),"PA-031, blaNDM; PA-031","S (S (Synergy, FICI ≤ 0.5))"
same,Concentrations of ATM and 5 at lowest FICI (ATM/5),"PA-031, blaNDM; PA-031",1/8
same,Lowest FICI (ATM/5),"PA-031, blaNDM; PA-031",0.27
same,Susceptibility to ATM,"PA-031, blaNDM; PA-031, ATM/5","S (S (sensitive, MIC ≤ 8 mg/L))"
same,FD (fold decrease in MIC of ATM with 5),"PA-031, blaNDM; PA-031, lowest-FICI combination",4
same,MIC,"PA-031, blaNDM; 5 at 1 mg/L",2 µg/mL
same,MIC,"PA-031, blaNDM; 5 at 2 mg/L",2 µg/mL
same,MIC,"PA-031, blaNDM; 5 at 4 mg/L",2 µg/mL
same,MIC,"PA-031, blaNDM; 5 at 8 mg/L",1 µg/mL
same,MIC,"PA-031, blaNDM; 5 at 16 mg/L",1 µg/mL
same,MIC,"PA-031, blaNDM; 5 at 32 mg/L",1 µg/mL
same,MIC,"PA-031, blaNDM; 5 at 64 mg/L",1 µg/mL
same,Activity (FICI class),"PA-033, blaNDM; PA-033","I (I (indifference, 0.5 < FICI ≤ 4))"
same,Concentrations of ATM and 5 at lowest FICI (ATM/5),"PA-033, blaNDM; PA-033",1/8
same,Lowest FICI (ATM/5),"PA-033, blaNDM; PA-033",0.52
same,Susceptibility to ATM,"PA-033, blaNDM; PA-033, ATM/5","S (S (sensitive, MIC ≤ 8 mg/L))"
same,FD (fold decrease in MIC of ATM with 5),"PA-033, blaNDM; PA-033, lowest-FICI combination",2
same,MIC,"PA-033, blaNDM; 5 at 1 mg/L",2 µg/mL
same,MIC,"PA-033, blaNDM; 5 at 2 mg/L",2 µg/mL
same,MIC,"PA-033, blaNDM; 5 at 4 mg/L",2 µg/mL
same,MIC,"PA-033, blaNDM; 5 at 8 mg/L",1 µg/mL
same,MIC,"PA-033, blaNDM; 5 at 16 mg/L",1 µg/mL
same,MIC,"PA-033, blaNDM; 5 at 32 mg/L",1 µg/mL
same,MIC,"PA-033, blaNDM; 5 at 64 mg/L",1 µg/mL
same,Dose up to which no toxicity was shown,In vivo toxicity,≥ 40 mg/kg
same,Activity (FICI class),"PA-032, blaIMP; PA-032","S (S (Synergy, FICI ≤ 0.5))"
same,Concentrations of ATM and 5 at lowest FICI (ATM/5),"PA-032, blaIMP; PA-032",2/8
same,Susceptibility to ATM,"PA-032, blaIMP; PA-032, ATM/5","S (S (sensitive, MIC ≤ 8 mg/L))"
same,FD (fold decrease in MIC of ATM with 5),"PA-032, blaIMP; PA-032, lowest-FICI combination",4
same,MIC,"PA-032, blaIMP; 5 at 1 mg/L",4 µg/mL
same,MIC,"PA-032, blaIMP; 5 at 2 mg/L",4 µg/mL
same,MIC,"PA-032, blaIMP; 5 at 4 mg/L",4 µg/mL
same,MIC,"PA-032, blaIMP; 5 at 8 mg/L",2 µg/mL
same,MIC,"PA-032, blaIMP; 5 at 16 mg/L",1 µg/mL
same,MIC,"PA-032, blaIMP; 5 at 32 mg/L",1 µg/mL
same,MIC,"PA-032, blaIMP; 5 at 64 mg/L",1 µg/mL
